From PubChem BioAssay (NCI)
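Grown in 96-well plates, cells were treated for 48 hours with each compound at five concentrations. Insufficient inhibition: endpoint recorded as highest concentration tested. GI50: concentration for 50% inhibition of growth. TGI is the concentration that stops growth completely.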 Where a SMILES comes first, the peptide text is derived from it. The star is where a group is joined. Boc = CC(C)(C)OC(=O)*

Tests used:
Test in all cases: inhibition of tumour cell growth, NCI panel, 48 h
MCF7 breast = test system: MCF7 breast
OVCAR-8 ovarian = test system: OVCAR-8 ovarian
IGROV1 ovarian = test system: IGROV1 ovarian
TK-10 renal = test system: TK-10 renal
KM12 colon = test system: KM12 colon
PC-3 prostate = test system: PC-3 prostate
RXF 393 renal = test system: RXF 393 renal
MALME-3M melanoma = test system: MALME-3M melanoma
SN12C renal = test system: SN12C renal
MDA-N = test system: MDA-N

| SMILES | TGI (MCF7 breast) [µM] | TGI (OVCAR-8 ovarian) [µM] | TGI (IGROV1 ovarian) [µM] | TGI (TK-10 renal) [µM] | TGI (KM12 colon) [µM] | TGI (PC-3 prostate) [µM] | TGI (RXF 393 renal) [µM] | TGI (MALME-3M melanoma) [µM] | TGI (SN12C renal) [µM] | TGI (MDA-N) [µM] | GI50 (MCF7 breast) [µM] | GI50 (OVCAR-8 ovarian) [µM] | GI50 (IGROV1 ovarian) [µM] | GI50 (TK-10 renal) [µM] | GI50 (KM12 colon) [µM] | GI50 (PC-3 prostate) [µM] | GI50 (RXF 393 renal) [µM] | GI50 (MALME-3M melanoma) [µM] | GI50 (SN12C renal) [µM] |
| --- | --- | --- | --- | --- | --- | --- | --- | --- | --- | --- | --- | --- | --- | --- | --- | --- | --- | --- | --- |
| O=C1OC2(C(F)(F)F)Oc3ccccc3CN2C12CCCCC2 (centres undefined) | > 100 | > 100 | > 100 | > 100 | 90.8 | 88 | 48.9 | 53.2 | > 100 | > 100 | – | – | – | – | – | – | – | – | – |
| Cc1cc2ccccc2n1CC(=O)N1CCCC1 | > 100 | > 100 | > 100 | > 100 | > 100 | > 100 | > 100 | > 100 | > 100 | > 100 | – | – | – | – | – | – | – | – | – |
| CC1CC[C@@]2(OC1)O[C@H]1C[C@H]3[C@@H]4CC[C@H]5C[C@@H](OC6OC(CO)C(OC7OC(CO)C(OC8OC(CO)C(O)C(OC9OC(C)C(OC%10OC(C)C(O)C(O)C%10O)C(O)C9O)C8OC8OCC(O)C(O)C8O)C(O)C7O)C(O)C6O)CC[C@]5(C)[C@H]4CC(=O)[C@]3(C)[C@H]1[C@@H]2C (some centres undefined) | 31.8 | 38.4 | 37.4 | 31.5 | 36.1 | 30.9 | 35.7 | 41.3 | 40.9 | 39.4 | – | – | – | – | – | – | – | – | – |
| CCCC(CC)c1c(O)c(O)c(C(CC)CCC)c(C(CC)CCC)c1C(CC)CCC (centres undefined) | > 10 | > 10 | > 10 | > 10 | > 10 | > 10 | > 10 | > 10 | > 10 | > 10 | – | – | – | – | – | – | – | – | – |
| COc1ccc(Oc2nc3ccc(C(F)(F)F)cc3nc2-c2ccccc2)cc1 | > 100 | – | > 100 | > 100 | > 100 | > 100 | > 100 | > 100 | > 100 | – | – | – | – | – | – | – | – | – | – |
| COC(=O)C(Cc1c[nH]c2ccccc12)NC(=O)C(Cc1c[nH]c2ccccc12)NC(=O)C(Cc1c[nH]c2ccccc12)NC(=O)C(Cc1c[nH]c2ccccc12)NC(=O)OC(C)(C)C (centres undefined) (Boc-WWWW-OMe; configuration not given here) | 0.0884 | > 100 | > 100 | > 100 | – | 96.5 | – | > 100 | > 100 | 55.3 | – | – | – | – | – | – | – | – | – |
| CSc1nc(NC2OCC(O)C(O)C2O)c(N)c(=O)n1C (centres undefined) | > 100 | > 100 | > 100 | – | > 100 | – | > 100 | > 100 | > 100 | – | – | – | – | – | – | – | – | – | – |
| CCOC(=O)c1c2c(n(-c3ccc(OC)cc3)c1C)C(=O)C(=O)c1ccccc1-2 | 6.24 | 2.76 | 12.7 | 3.33 | 3.61 | 5.7 | 4.05 | 0.605 | 3.19 | – | – | – | – | – | – | – | – | – | – |
| CCc1nn(S(=O)(=O)c2ccc(C)cc2)c2c1CS(=O)(=O)CC2 | > 100 | > 100 | – | > 100 | > 100 | > 100 | > 100 | – | > 100 | > 100 | – | – | – | – | – | – | – | – | – |
| CC1(C)[C@@H](Cn2cnc3c(=O)[nH]c(N)nc32)CC[C@@]1(C)CO | > 100 | – | – | > 100 | > 100 | > 100 | > 100 | – | > 100 | > 100 | – | – | – | – | – | – | – | – | – |
| COC(=O)/C=C\C(C#N)(C#N)N=Cc1ccc(C)s1 | 4.05 | 9.97 | 4.94 | 3.8 | 31.8 | 6.72 | 3.42 | 3.09 | 5.91 | 6.94 | – | – | – | – | – | – | – | – | – |
| Fc1ccc(C2CC(c3cccc(Nc4ccncc4)c3)=NN2c2cc(Cl)cc(Cl)c2)cc1 (centres undefined) | 4.37 | 4.77 | 3.3 | 3.84 | 3.26 | 3.14 | 2.99 | 3.41 | 3.16 | – | 1.95 | 2.2 | 1.74 | 1.94 | 1.76 | 1.55 | 1.59 | 1.72 | 1.69 |
| OCC(O)C1OC2CC1Nc1ccccc1N2 (centres undefined) | – | > 100 | > 100 | > 100 | > 100 | > 100 | – | > 100 | > 100 | – | – | – | – | – | – | – | – | – | – |
| COCN1CCN=c2c1c1c3c(c4ccccc4n23)CCC1 | > 100 | > 100 | > 100 | > 100 | > 100 | > 100 | > 100 | > 100 | > 100 | > 100 | – | – | – | – | – | – | – | – | – |
| COc1ccccc1NC(=S)N/N=C(/C)c1ccccn1 | > 100 | > 100 | – | 58.9 | > 100 | > 100 | 23.4 | 16.7 | 6.73 | > 100 | – | – | – | – | – | – | – | – | – |
| C[C@@H]1C[C@]2(C[C@@H](C)[C@H]3C(C[C@@]4(C)CCC[C@@H]5C6=C[C@H](CCC34C)OC6=CC(=O)OC5(C)C)O2)OC1=O (some centres undefined) | > 51.5 | > 51.5 | > 51.5 | – | > 51.5 | – | – | – | > 51.5 | – | – | – | – | – | – | – | – | – | – |
| COc1ccc(C[C@H](N)C(=O)N2C[C@H](CO)C[C@H](n3ccc(=O)[nH]c3=O)C2)cc1 | – | > 100 | > 100 | > 100 | > 100 | – | > 100 | > 100 | > 100 | – | – | – | – | – | – | – | – | – | – |
| C=CC(C)(C)N[C@@H](C(=O)N1CCC[C@H]1c1nc(-c2nc(C(=O)OCC=C(C)C)c(C)o2)c(C)o1)C(C)C | 91.4 | 65 | > 100 | 63.2 | 60.3 | > 100 | 91.8 | 39 | 39.2 | 38.4 | – | – | – | – | – | – | – | – | – |
| CC1(C)CN(c2ccccc2)C(=O)C1OC(=O)[C@@]1(C)C[C@@H]2C=C[C@H]1C2 (some centres undefined) | 58 | > 100 | 41.3 | 64.7 | 45.2 | 83.2 | 35.4 | 28.3 | 49.8 | 41.6 | – | – | – | – | – | – | – | – | – |
| [N-]=[N+]=NC1CC(n2cc(COCC(F)(F)F)c(=O)[nH]c2=O)OC1CO (centres undefined) | – | > 100 | > 100 | > 100 | > 100 | – | > 100 | > 100 | > 100 | – | – | – | – | – | – | – | – | – | – |
| Cc1ccc(NC(=S)Nc2c(C)n(C)n(-c3ccccc3)c2=O)cc1 | > 100 | > 100 | > 100 | > 100 | > 100 | > 100 | > 100 | > 100 | – | > 100 | – | – | – | – | – | – | – | – | – |
